Test results taken from publication PMC9804470, “A Formylglycine‐Peptide for the Site‐Directed Identification of Phosphotyrosine‐Mimetic Fragments” (Chemistry (Weinheim an Der Bergstrasse, Germany), 2022).
Entries after “also recorded” stand apart in the source; their conditions may differ. Like-named read-outs stand apart in the source and are kept apart here.

Legend:
SHP2 [1] = biological target: T1, SHP2 (Homo sapiens, UniProt Q06124); experiment: Dynamic ligation screening of nucleophilic fragments with formylglycine peptide 3, SHP2; type: biochemical; details: 3 100 μM pre-incubated 5 min, fragment 200 μM, 30 min RT before DiFMUP, triplicates
T1 construct: catalytic domain of human SHP2 (amino acids 225–541); His10 (N); made in house; host or cells: E. coli B21 (DE3)
T1 sequence (Q06124 225-541): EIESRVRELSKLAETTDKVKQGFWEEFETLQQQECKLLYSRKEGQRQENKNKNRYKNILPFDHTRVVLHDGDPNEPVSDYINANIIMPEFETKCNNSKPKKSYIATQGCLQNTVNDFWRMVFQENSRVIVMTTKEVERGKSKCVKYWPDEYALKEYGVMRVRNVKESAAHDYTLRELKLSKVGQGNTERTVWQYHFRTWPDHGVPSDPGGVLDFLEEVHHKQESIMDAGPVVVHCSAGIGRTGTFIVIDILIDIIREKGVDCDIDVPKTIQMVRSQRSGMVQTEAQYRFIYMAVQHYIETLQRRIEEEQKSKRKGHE
Method: (§1) Enzyme activity assays of SHP2 and PTP1B: The catalytic activity of SHP2 catalytic domain and PTP1B were monitored using the fluorogenic substrate DiFMUP (6,8‐difluoro‐4‐methylumbelliferyl phosphate). Phosphatase reactions were performed at room temperature in 384‐well black plate, clear flat bottom, low flange, non‐binding surface (Corning, Cat# 3766) using a final volume of 20 μL and the following assay buffer conditions: 50 mM MOPS, pH=6.5, 200 mM NaCl, 50 μM TCEP, 0.03 % Tween‐20 (freshly added prior to each measurement). Test compounds were dissolved in DMSO or buffer at stock concentrations of 50, 20 or 10 mM and serially diluted. Enzyme (5 nM PTP1B or 2.5 nM SHP2 catalytic domain) and different concentrations of the tested compounds were incubated in buffer for 30–60 min at room temperature. Measurements were performed with a final concentration of 2.5 % DMSO unless stated otherwise at 37 °C and were performed in triplicate. Enzymatic reactions were started by adding DiFMUP (Invitrogen, cat# D6567) concentrations matching the experimentally determined KM values of the enzymes of 67 μM (PTP1B) or 72 μM (SHP2). Samples were excited at a wavelength of 360 nm and emitted fluorescence was recorded at 460 for 10 min using a microplate reader (infinite M1000 Pro, Tecan). Initial slope of fluorescence was determined in triplicate and IC50 values were calculated with GraphPad Prism 5. Determined IC50 values were converted into the corresponding KI values applying the Cheng Prusoff equation KI =IC50 /(1+[S]/KM ).
(§2) Dynamic ligation screening of nucleophilic fragments with 3: Under assay conditions described above, PTP1B or SHP2 were pre‐incubated with 3 (100 μM) for 5 min. Subsequently, (200 μM) of the respective fragments were added and the resulting mixtures were incubated for 30 min at RT, prior to DiFMUP addition.

PTP1B [2] = biological target: T2, PTP1B (Homo sapiens, UniProt P18031); experiment: Dynamic ligation screening of nucleophilic fragments with formylglycine peptide 3, PTP1B; type: biochemical; details: 3 100 μM pre-incubated 5 min, fragment 200 μM, 30 min RT before DiFMUP, triplicates
T2 construct: catalytic domain of human PTP1B (amino acids 1–321); His7 (N, cleaved yes); made in house; host or cells: E. coli Rosetta (DE3)
T2 sequence (P18031 1-321): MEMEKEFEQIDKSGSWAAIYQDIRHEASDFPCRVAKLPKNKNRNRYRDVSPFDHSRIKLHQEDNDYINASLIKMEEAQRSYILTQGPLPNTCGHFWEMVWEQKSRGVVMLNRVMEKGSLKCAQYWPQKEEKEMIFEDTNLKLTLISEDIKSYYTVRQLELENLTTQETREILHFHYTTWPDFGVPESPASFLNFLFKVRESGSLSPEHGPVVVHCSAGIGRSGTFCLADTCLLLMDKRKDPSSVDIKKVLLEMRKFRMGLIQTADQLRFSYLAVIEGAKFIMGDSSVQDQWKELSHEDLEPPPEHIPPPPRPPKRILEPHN
Method: as §1, §2

PTP1B [3] = biological target: T2, PTP1B; experiment: Apparent KI values of in situ ligation products of 3 (time- and concentration-dependent assay); type: biochemical; details: for Effect of fragment ligation with 3 on inhibition curves of PTP1B: inhibition at different concentrations, with and without 3 / fragment (Figure 5C, D)
Method: as §1
Subsequently, over the course of 60 mins (every 15 min), 2 equivalents of fragment F1 were added to each of the different concentrations of 3 at RT, prior to DiFMUP addition.
Subsequently, fragment F2 was added at three different concentrations (1 equiv, 2 equiv, and 4 equiv) and the resulting mixtures were incubated for 30 min at RT, prior to DiFMUP addition.

[4] = biological target: T3, catalytic domain of human PTP1B (Homo sapiens, UniProt P18031); experiment: Enzyme activity assay of PTP1B with fluorogenic substrate DiFMUP; type: biochemical
T3 construct: catalytic domain of human PTP1B (amino acids 1–321); His7 (N, cleaved yes); made in house; host or cells: E. coli Rosetta (DE3)
T3 sequence (P18031 1-321): T2 sequence (P18031 1-321)
Method: Protein Expression and purification: DNA encoding the catalytic domain of human PTP1B (amino acids 1–321) was subcloned into the pQLinkH vector. The gene encoding the N‐terminal His7‐tagged protein was over‐expressed at 17 °C in E. coli Rosetta (DE3). […] The His7‐tag was cleaved with tobacco etch virus protease at 20 °C prior to the gel‐filtration step. The catalytic domain of human SHP2 (amino acids 225–541) was purified from E. coli B21 (DE3). The overexpressed protein was fused to an N‐terminal His10‐tag. Cells were harvested and resuspended in 25 mM Tris‐HCl (pH=7.5), 50 mM NaCl, 1 % (v/v) Triton X‐100, 10 % (v/v) glycerol, 1 mM DTT. After cell lysis, debris was removed by centrifugation at 12,000 rpm for 30 min. The supernatant was filtered prior to affinity purification with Ni‐NTA agarose (Qiagen). The slurry was washed with 50 mM Tris‐HCl (pH=8.0), 500 mM NaCl supplemented with 25 mM imidazole. Reasonably pure protein was eluted with 200–300 mM imidazole. The purification was completed by size‐exclusion chromatography with a Superdex 75 16/600 column (GE Healthcare) equilibrated with 20 mM HEPES‐NaOH (pH=7.5), 50 mM NaCl, 1 mM DTT.
as §1

[5] = biological target: T4, catalytic domain of human SHP2 (Homo sapiens, UniProt Q06124); experiment: Enzyme activity assay of SHP2 catalytic domain with fluorogenic substrate DiFMUP; type: biochemical
T4 construct: catalytic domain of human SHP2 (amino acids 225–541); His10 (N); made in house; host or cells: E. coli B21 (DE3)
T4 sequence (Q06124 225-541): T1 sequence (Q06124 225-541)
Method: Enzyme activity assays of SHP2 and PTP1B: The catalytic activity of SHP2 catalytic domain and PTP1B were monitored using the fluorogenic substrate DiFMUP (6,8‐difluoro‐4‐methylumbelliferyl phosphate). Phosphatase reactions were performed at room temperature in 384‐well black plate, clear flat bottom, low flange, non‐binding surface (Corning, Cat# 3766) using a final volume of 20 μL and the following assay buffer conditions: 50 mM MOPS, pH=6.5, 200 mM NaCl, 50 μM TCEP, 0.03 % Tween‐20 (freshly added prior to each measurement). Test compounds were dissolved in DMSO or buffer at stock concentrations of 50, 20 or 10 mM and serially diluted. Enzyme (5 nM PTP1B or 2.5 nM SHP2 catalytic domain) and different concentrations of the tested compounds were incubated in buffer for 30–60 min at room temperature. […] Enzymatic reactions were started by adding DiFMUP (Invitrogen, cat# D6567) concentrations matching the experimentally determined KM values of the enzymes of 67 μM (PTP1B) or 72 μM (SHP2). Samples were excited at a wavelength of 360 nm and emitted fluorescence was recorded at 460 for 10 min using a microplate reader (infinite M1000 Pro, Tecan). Initial slope of fluorescence was determined in triplicate and IC50 values were calculated with GraphPad Prism 5. Determined IC50 values were converted into the corresponding KI values applying the Cheng Prusoff equation KI =IC50 /(1+[S]/KM ).

[6] = test system: HGF‐induced tyrosine phosphorylation of ERK 1/2 in HeLa cells; experiment: Western blot of p-ERK in HGF-stimulated HeLa cells; type: cell-based; details: 1 h treatment; for Concentration giving (complete) dephosphorylation of Erk / inhibition of Erk phosphorylation: HGF 20 ng/well, Western blot p-ERK; for Effect on HGF‐induced tyrosine phosphorylation of ERK 1/2: Western blot, DMSO control
Method: Cellular experiments: HeLa cells were cultivated in DMEM buffer with 10 % FCS in 75 cm^2 cell culture flasks at 37 °C, 5 % CO2. At confluency of about 75 %, cells were seeded in a density of 250,000 cells/mL in 6‐well plates and incubated for 24 h. Subsequently, medium was removed and replaced by DMEM buffer with 0.1 % BSA (1 mL per well) and incubated for another 16 h. Hepatocyte growth factor (HGF, 20 ng/well) and test compounds in different final concentrations (1 μL, in DMSO) were added. Control wells received the same amount of DMSO (final concentration 0.1 %) or no addition. Plates were incubated for 1 h, then washed with cold PBS and shaken with lysis buffer (mPer reagent ThermoScientific # 78501 with 1 mM NaF, 2 mM Na3VO4, 25× protease inhibitor) for 5 min. Cell lysates were transferred to Eppendorf cups and centrifuged at 4 °C with 10,000 g for 10 min. […] The blot was incubated with anti‐phospo‐ERK as primary antibody (Cell Signaling # 9106, dilution 1 : 2000 in TBS‐Tween/ 2 % BSA) overnight at 4 °C, washed 3×5 min with TBS‐Tween, and incubated with anti‐mouse IgG‐hrp as secondary antibody (Santa Cruz # sc2031, 1 : 6000 in TBS‐ Tween/ 2 % BSA, RT, 1.5 h). The blot was again washed 3×5 min with TBS‐Tween and imaged with the ECL system (ThermoScientific # 34080) at Syngene PXi Imager. From the same lysis sample, under the same conditions, ERK 1/2 and β‐tubulin were blotted. For β‐tubulin, the antibody incubation time was adjusted to 2 h at RT.

SHP2 [7] = biological target: T1, SHP2; experiment: Determination of KI using Michaelis-Menten kinetics; type: biochemical
Method: as §1
Determination of KI values using Michaelis-Menten kinetics
The assays for the determination of KI values were performed as described under the same conditions as mentioned in the main paper. The initial velocities of the enzymatic reaction inhibited by compound 21 were determined using four different inhibitor concentrations (0, 75, 100 and 150 nM) and four different substrate concentrations (100, 50, 25 and 12.5 µM).
Fluorescence was monitored over 10 min, during which the increase in fluorescence was linear. Initial velocities were calculated and were plotted as a function of the substrate concentration. The inhibition constant KI was determined using Michaelis-Menten kinetics applying GraphPad Prism 9 (Supplementary Figure 31). The obtained data were fitted to three different inhibition models, namely competitive, uncompetitive, and non-competitive inhibition.
The best fit was obtained for the competitive inhibition mode, resulting in the highest correlation […]
Supplementary Figure 31. Michaelis-Menten plots of compound 21 using inhibitor […]
Table 2. Results of Michaelis-Menten plots for different modes of inhibition of compound 21 (competitive, uncompetitive and non-competitive inhibition).
Inhibition model Competitive Uncompetitive Non-competitive
(1 picture or pasted object on this page, not shown here)

[8] = hydrazine fragments alone, DiFMUP assay, Supporting Table 1
[9] = DiFMUP 72 μM (= KM), enzyme 1.5 nM, triplicate, from IC50 by Cheng-Prusoff (IC50/2), read-out: KI SHP2 (Table 2, footnote a)

Nc1ccc(OCC(=O)O)cc1 [Compound F4, 4‐amino‐phenoxyacetic acid]
Enhancement of inhibition of SHP2 by fragment in combination with peptide 3 (fragment ligation assay) (SHP2 [1]): over‐additive inhibition; also recorded: super‐additive inhibition
Enhancement of inhibition of PTP1B by fragment in combination with peptide 3 (fragment ligation assay) (PTP1B [2]): over‐additive inhibition; also recorded: super‐additive inhibition

Nc1ccc(CC(=O)O)cc1 [Compound F1, 4‐amino‐phenyl‐acetic acid]
Enhancement of inhibition of SHP2 by fragment in combination with peptide 3 (fragment ligation assay) (SHP2 [1]): over‐additive inhibition; also recorded: super‐additive inhibition
Enhancement of inhibition of PTP1B by fragment in combination with peptide 3 (fragment ligation assay) (PTP1B [2]): over‐additive inhibition; also recorded: super‐additive inhibition

Nc1ccc(NS(=O)(=O)C(F)(F)F)cc1 [Compound F2, N‐(4‐aminophenyl)‐trifluoromethyl sulfonamide]
Enhancement of inhibition of SHP2 by fragment in combination with peptide 3 (fragment ligation assay) (SHP2 [1]): over‐additive inhibition; also recorded: super‐additive inhibition
Enhancement of inhibition of PTP1B by fragment in combination with peptide 3 (fragment ligation assay) (PTP1B [2]): over‐additive inhibition; also recorded: pronounced activity; also recorded: super‐additive inhibition
Ki (PTP1B [3]; PTP1B, ligation product of F2 with 3, read-out: apparent KI of fragment ligation product with 3 (legend of Figure 5B)): 17 µM

NNc1ccc(S(=O)(=O)O)cc1 [Compound F3, 4‐hydrazo‐phenylsulfonic acid]
IC50 [4, 8]: 34 µM
Ki ([4]; read-out: KI PTP1B): 17 µM
IC50 [5, 8]: > 250 µM
Effect of fragment ligation with 3 on inhibition curves of PTP1B (PTP1B [3]): did not enforce inhibition of PTP1B further

O=C(O)COc1ccc(N/N=C2\C(=O)N(c3ccc([N+](=O)[O-])cc3)N=C2c2ccc([N+](=O)[O-])cc2)cc1 [Compound 23, (Z)‐2‐(4‐(2‐(1,3‐Bis‐(4‐nitrophenyl)‐5‐oxo‐1,5‐dihydro‐4H‐pyrazol‐4‐ylidene)‐hydrazinyl)‐phenoxy)‐acetic acid]
Concentration giving (complete) dephosphorylation of Erk / inhibition of Erk phosphorylation [6]: > 100 µM
Ki ([5]; catalytic domain of SHP2, DiFMUP, from IC50 by Cheng-Prusoff, GS-493 sentence carries ref 26, read-out: KI SHP2): 0.275 µM

O=C(O)Cc1ccc(N/N=C2\C(=O)N(c3ccc([N+](=O)[O-])cc3)N=C2c2ccc([N+](=O)[O-])cc2)cc1 [Compound 21, (Z)‐2‐(4‐(2‐(1,3‐Bis‐(4‐nitrophenyl)‐5‐oxo‐1,5‐dihydro‐4H‐pyrazol‐4‐ylidene)‐hydrazinyl)‐phenyl)‐acetic acid]
Effect on HGF‐induced tyrosine phosphorylation of ERK 1/2 [6]: decreased
Concentration giving (complete) dephosphorylation of Erk / inhibition of Erk phosphorylation [6]: 6.25 µM
Ki [5, 9]: 0.079 µM
Ki (SHP2 [7]; Michaelis-Menten kinetics at different substrate concentrations, competitive model, read-out: KI SHP2 (Table 2, footnote b) (converted)): 0.032 µM
Mode of inhibition of SHP2 (SHP2 [7]; best fit among competitive, uncompetitive, non-competitive models): competitive inhibitor; also recorded: competitive mode of inhibition
KI by Michaelis-Menten kinetics, uncompetitive model (SHP2 [7]; inhibitor 0, 75, 100, 150 nM, DiFMUP 100, 50, 25, 12.5 µM, R2 0.8637): 0.0084 µM
Ki (SHP2 [7]; inhibitor 0, 75, 100, 150 nM, DiFMUP 100, 50, 25, 12.5 µM, R2 0.8991, read-out: KI by Michaelis-Menten kinetics, non-competitive model): 0.0465 µM
Ki (SHP2 [7]; inhibitor 0, 75, 100, 150 nM, DiFMUP 100, 50, 25, 12.5 µM, best fit, R2 0.9007, read-out: KI by Michaelis-Menten kinetics, competitive model): 0.032 µM

O=C1/C(=N\Nc2ccc(NS(=O)(=O)C(F)(F)F)cc2)C(c2ccc([N+](=O)[O-])cc2)=NN1c1ccc([N+](=O)[O-])cc1 [Compound 22]
Effect on HGF‐induced tyrosine phosphorylation of ERK 1/2 [6]: decreased
Concentration giving (complete) dephosphorylation of Erk / inhibition of Erk phosphorylation [6]: 25 µM
Ki [5, 9]: 5.9 µM

Nc1ccc(S(F)(F)(F)(F)F)cc1 [Compound F7, 4‐amino‐phenyl‐pentafluorosulfate]
Enhancement of inhibition of PTP1B by fragment in combination with peptide 3 (fragment ligation assay) (PTP1B [2]): inactive
Effect of fragment ligation with 3 on inhibition curves of PTP1B (PTP1B [3]): identical inhibition curves
